Test results reported in patent US12433908B2, “Use of nicotinamide riboside, nicotinic acid riboside, and nicotinamide mononucleotide, reduced nicotinyl compounds, and nicotinoyl compound derivatives in infant formula for healthy development” (ChromaDex, Inc., priority 2016, dated 2025).
Entries after “also recorded” stand apart in the source; their conditions may differ.

Assay: Fecal SCFA analysis by gas chromatography in piglets given NR solution
Assay type: in vivo, piglets (Yorkshire/Hampshire crossbred)
Source text: Sixteen (n=16) Yorkshire/Hampshire crossbred piglets were obtained from the University of California, Davis Swine Teaching and Research Center and received on lactation day (“LD”) 14. Prior to arrive, the piglets were processed by the suppler between 1-3 days of age by administration of iron and an antibiotic ([…] for swine) as is common practice at the University of California, Davis Swine Facility. It is not common practice at the University of California, Davis Swine Facility to give a second dose of iron and antibiotics unless it becomes necessary. The piglets were from two litters (litters 15 and 17), weaned at 17 days of age, and randomly placed into one of two groups balanced for litter, sex, and weight. The animals were not acclimated to the facility at arrival and were subsequently acclimated to the test diet administration system. The piglets were weaned into a temperature-controlled room (approximately 27-29° C.) that contained 10 adjacent pens. The piglets were group-housed in the nursery room at the Swine Facility, which is an enclosed room with access restricted to trained personnel. The two groups were separated by one pen containing piglets of similar age. Each morning enough nicotinamide riboside (NR, I) in water solution was prepared for that day's dose administration according to the dose preparation protocol. At least 5 mL of prepared dose was reserved and immediately frozen after preparation each day for analysis of nicotinamide riboside (NR, I) for the purpose of confirming stability of the dose material. The doses were stored at refrigeration temperature while not in use. Nicotinamide riboside (NR, I) was dosed once per day in the morning and at the same time each day. Piglets in the control group received the same volume of plain water and were dosed on the same schedule. Starting on Day 1, animals in the nicotinamide riboside (NR, I) group were dosed once daily (in the morning) with 277 mg nicotinamide riboside (NR, I) per pig resuspended in water for seven days. After one week, animals were dosed once daily with 342 mg nicotinamide riboside (NR, I) per pig delivered in 2.5 mL for seven days. For Days 1 and 2, the nicotinamide riboside (NR, I) solution was prepared by resuspending 2770 mg nicotinamide riboside (NR, I) in 50 mL water, and 5 mL of this solution was delivered to each pig by squirting it into the back of the mouth using a 10 mL syringe with a piece of tubing attached to the end. To reduce the volume to more efficiently deliver the nicotinamide riboside (NR, I) solution, the 2770 mg was resuspended in 25 mL water and 2.5 mL of the solution was squirted into the back of the mouth of each pig using a 3 mL syringe for Days 3-7. For Days 8-14, 3420 mg nicotinamide riboside (NR, I) was resuspended in 25 mL water and 2.5 mL of this solution was delivered to each pig. Each day prior to dosing, 2.5 mL of the nicotinamide riboside (NR, I) (5 mL on Days 1 and 2) were placed into a separate tube and frozen. Fresh fecal samples were collected from each pig on Days 1 (baseline), 8 (Wk 1), and 14 (Wk 2), and frozen. When a freshly voided sample could not be obtained, the rectum was swabbed. A total of 100 mg of feces from each pig was used for SCFA analysis using gas chromatography with known standards for acetic acid, propionic acid, isobutyric acid, butyric acid, isovaleric acid, and valeric acid. Samples were extracted with 25% metaphosphoric acid and each extraction run in triplicate on a GC equipped with the PeakSimple Chromatography Data System. Data was analyzed using a one-way ANoVA or the non-parametric Kruskal-Wallis test if the distribution of values was not Gaussian. A conservative analysis of the data is presented below (animals that had to be swabbed to get a fecal sample) in Table 3 and an analysis of the data including the swab samples is in Table 8. The trends are similar, the p-values are not.

[1] = 1 week of daily administration of 277 mg of NR in water
[2] = Wk 1, 277 mg/pig once daily oral
[3] = including the swab samples, Baseline, before dosing
[4] = including the swab samples, Wk 1, 277 mg/pig once daily oral
[5] = including the swab samples, third column group, headed 'Wk 1' again
[6] = without swab samples, Baseline, before dosing
[7] = without swab samples, Wk 1, 277 mg/pig once daily oral
[8] = without swab samples, third column group, headed 'Wk 1' again

With `NC(=O)c1ccc[n+]([C@@H]2O[C@H](CO)[C@@H](O)[C@H]2O)c1` [NR, Nicotinamide riboside] the “Fecal SCFA levels” value [1] was “increased”, the “fecal acetic acid (C2), propionic acid (C3), and butyric acid (C4)” value [1] was “marked increases” and the “Fecal SCFA Acetic Acid, Δ vs. baseline (NR)” value [2] was 15.1 ppm. For the same molecule, the “Fecal SCFA Butyric Acid, Δ vs. baseline (NR)” value [2] was 26.3 ppm, the “Fecal SCFA Isobutyric Acid, Δ vs. baseline (NR)” value [2] was −3.4 ppm and the “Fecal SCFA Isovaleric Acid, Δ vs. baseline (NR)” value [2] was −4.3 ppm. For the same molecule, the “Fecal SCFA Propionic Acid, Δ vs. baseline (NR)” value [2] was 35.9 ppm, the “Fecal SCFA Valeric Acid, Δ vs. baseline (NR)” value [2] was 5.4 ppm and the “Fecal SCFA Acetic Acid, Significant change from baseline within group” value (Wk 1 vs. baseline) was “No”. The “Fecal SCFA Butyric Acid, Significant change from baseline within group” value (Wk 1 vs. baseline) was “statistically significant; also recorded: Yes, P < 0.05”, the “Fecal SCFA Isobutyric Acid, Significant change from baseline within group” value (Wk 1 vs. baseline) was “No” and the “Fecal SCFA Isovaleric Acid, Significant change from baseline within group” value (Wk 1 vs. baseline) was “No”. For the same molecule, the “Fecal SCFA Propionic Acid, Significant change from baseline within group” value (Wk 1 vs. baseline) was “statistically significant; also recorded: Yes, P < 0.05”, the “Fecal SCFA Valeric Acid, Significant change from baseline within group” value (Wk 1 vs. baseline) was “No” and the “Fecal SCFA Isobutyric Acid” value (including the swab samples) was 7.9 ± 10.9 ppm. The “Fecal SCFA Propionic Acid” value (including the swab samples) was 51.5 ± 45.7 ppm, the “Fecal SCFA Valeric Acid” value (including the swab samples) was 7.8 ± 11.3 ppm and the “Fecal SCFA Acetic Acid” value [3] was 43.5 ± 23.5 ppm. For the same molecule, the “Fecal SCFA Butyric Acid” value [3] was 11.1 ± 18.4 ppm, the “Fecal SCFA Isobutyric Acid” value [3] was 9.5 ± 9.3 ppm and the “Fecal SCFA Isovaleric Acid” value [3] was 16.8 ± 14.0 ppm. For the same molecule, the “Fecal SCFA Propionic Acid” value [3] was 15.3 ± 10.6 ppm, the “Fecal SCFA Valeric Acid” value [3] was 2.4 ± 6.9 ppm and the “Fecal SCFA Acetic Acid” value [4] was 58.6 ± 14.5 ppm. The “Fecal SCFA Butyric Acid” value [4] was 37.4 ± 16.8 ppm, the “Fecal SCFA Isobutyric Acid” value [4] was 6.1 ± 6.4 ppm and the “Fecal SCFA Isovaleric Acid” value [4] was 12.5 ± 9.1 ppm. For the same molecule, the “Fecal SCFA Propionic Acid” value [4] was 51.2 ± 13.2 ppm, the “Fecal SCFA Valeric Acid” value [4] was 7.8 ± 6.6 ppm and the “Fecal SCFA Acetic Acid” value [5] was 70.1 ± 62.6 ppm. For the same molecule, the “Fecal SCFA Butyric Acid” value [5] was 41.2 ± 34.6 ppm, the “Fecal SCFA Isovaleric Acid” value [5] was 11.3 ± 15.7 ppm and the “Fecal SCFA Isobutyric Acid” value (without swab samples) was 15.9 ± 10.6 ppm. The “Fecal SCFA Propionic Acid” value (without swab samples) was 90.0 ± 30.4 ppm, the “Fecal SCFA Valeric Acid” value (without swab samples) was 15.7 ± 11.5 ppm and the “Fecal SCFA Acetic Acid” value [6] was 43.5 ± 23.5 ppm. For the same molecule, the “Fecal SCFA Butyric Acid” value [6] was 11.1 ± 18.4 ppm, the “Fecal SCFA Isobutyric Acid” value [6] was 9.5 ± 9.3 ppm and the “Fecal SCFA Isovaleric Acid” value [6] was 16.8 ± 14.0 ppm. The “Fecal SCFA Propionic Acid” value [6] was 15.3 ± 10.6 ppm, the “Fecal SCFA Valeric Acid” value [6] was 2.4 ± 6.9 ppm and the “Fecal SCFA Acetic Acid” value [7] was 55.78 ± 13.4 ppm. The “Fecal SCFA Butyric Acid” value [7] was 36.9 ± 18.3 ppm, the “Fecal SCFA Isobutyric Acid” value [7] was 5.8 ± 6.5 ppm and the “Fecal SCFA Isovaleric Acid” value [7] was 11.9 ± 9.8 ppm. The “Fecal SCFA Propionic Acid” value [7] was 49.3 ± 13.3 ppm, the “Fecal SCFA Valeric Acid” value [7] was 6.7 ± 6.7 ppm and the “Fecal SCFA Acetic Acid” value [8] was 118.7 ± 55.01 ppm. For the same molecule, the “Fecal SCFA Butyric Acid” value [8] was 70.8 ± 21.9 ppm and the “Fecal SCFA Isovaleric Acid” value [8] was 22.5 ± 15.5 ppm.
